Patent publication US12515032B2, “Gelatin methacryloyl-based microneedle patches for delivery of water-insoluble drugs” (THE REGENTS OF THE UNIVERSITY OF CALIFORNIA, priority 2020, dated 2026)

How the values were obtained:
[1] = Aqueous stability of curcumin in DPBS (absorbance at 430 nm); type: physicochemical; settings: after 1 h at 37° C. incubation
Protocol: The stability of curcumin was monitored by measuring absorbance at 430 nm for both the inclusion complex and free curcumin dissolved in DPBS (DPBS diluted with ethanol). The percentage of remaining curcumin was estimated by measuring the absorbance compared to the initial absorbance over a 6 h period. […] GelMA-β-(D) and curcumin inclusion complex preparation: […] For comparison of curcumin solubility, GelMA was used as a control and the resulting solution was named as GelMA/CUR. After the equilibrium was reached, the suspension was centrifuged at 12,000 rpm for 10 min; supernatants were withdrawn and further filtered through a 0.22 μm film. The inclusion complex solutions were measured for absorbance at 430 nm to assess solubility. The prepared GelMA-β-CD/CUR solution was also used for aqueous stability study compared to free curcumin dissolved in DPBS (DPBS:ethanol as 4:1). The GelMA-β-CD/CUR solutions were freeze-dried for additional FTIR and DSC analysis.

[2] = Curcumin loading capacity / solubility in GelMA and GelMA-β-CD solution (absorbance at 430 nm); type: physicochemical
Protocol: Curcumin was selected as a model for water-insoluble drug or therapeutic agent 26 (FIG. 11) to test the loading efficacy of GelMA-β-CD. Aqueous drug suspension was used to compare the loading capacity relative to unmodified GelMA. […] The intermolecular interaction between CD and curcumin primarily dictated the desirable properties of water-insoluble drug 26 delivery.
GelMA-β-(D) and curcumin inclusion complex preparation: To prepare the inclusion complex, excess amount of curcumin (5 mg) was added to pre-dissolved GelMA-β-CD solution in 1 mL DPBS (20%, g/mL) and stirred at 37° C. for 30 min to form the inclusion complex solution where curcumin could be encapsulated within the cavity of CD and the resulting solution was named as GelMA-β-CD/CUR. For comparison of curcumin solubility, GelMA was used as a control and the resulting solution was named as GelMA/CUR. After the equilibrium was reached, the suspension was centrifuged at 12,000 rpm for 10 min; supernatants were withdrawn and further filtered through a 0.22 μm film. The inclusion complex solutions were measured for absorbance at 430 nm to assess solubility. The prepared GelMA-β-CD/CUR solution was also used for aqueous stability study compared to free curcumin dissolved in DPBS (DPBS:ethanol as 4:1). The GelMA-β-CD/CUR solutions were freeze-dried for additional FTIR and DSC analysis.

Row | Percentage of remaining curcumin [1] | Loading capacity (solubility) of curcumin [2] [µg/mL] | Compound
1 | approximately 45% | – | COc1cc(/C=C/C(=O)CC(=O)/C=C/c2ccc(O)c(OC)c2)ccc1O [curcumin]
2 | – | 84.8 ± 13.5 | gelatin methacryloyl [GelMA]
